# In US5576188A, “Immunological detection of metolachlor” (Ciba-Geigy Corporation, priority 1990, dated 1996):
# How the values were obtained:
# [1] = biological target: MAb 4082-25-4; test: Indirect competitive ELISA (assay A), inhibition of MAb 4082-25-4 binding / cross-reactivity; parameters: species or system BALB/c mouse; conditions: for I50 (inhibitor concentration for 50% inhibition in the competitive ELISA): MAb 4082-25-4; for Cross-reactivity (metolachlor concentration for 50% inhibition / concentration of metolachlor analogue for 50% inhibition × 100): MAb 4082-25-4, relative to metolachlor
# Excerpt: The percentage cross-reactivity is to be defined within the scope of this invention by the following relation:
# (Metolachlor concentration for 50% inhibition/concentration of the metolachlor analogues for 50% inhibition)×100.
# A 50% inhibition can be determined, for example, with the aid of a competitive ELISA assay (compare Example 8). This then corresponds, for example, to that antigen concentration which leads to 50% inhibition of antibody binding to the carrier-bound antigen.
# 8.1: Indirect ELISA (assay A)
# Metolachlor is detected by means of a two-stage competitive ELISA test using an enzyme-labelled second antibody.
# BSA-conjugated hapten in a 50 mM sodium carbonate buffer (pH 9.6) (200 ng of BSA-conjugated hapten/100 μl of sodium carbonate buffer) is initially adsorbed onto microtitre plates (for example Dynatech, type M 129A) and incubated at a temperature of 4° C. overnight. It has emerged that the sensitivity of the assay can be increased almost 5-fold by reducing the conjugate[BSA/hapten] concentration from 200 ng/100 μl of sodium carbonate buffer to 50 ng/100 μl of sodium carbonate buffer because the coating is improved.
# The plates are then washed 5× with PBS buffer which is supplemented with 0.1% (v/v) polysorbate 20 (Tween 20) (PBS-Tween).
# The remaining free binding sites on the solid support material are then blocked by adding BSA in the form of a 1% solution. After incubation at 22° C. for two hours the plates are again washed with PBS-Tween (0.1%).
# 50 μl of the previously purified monoclonal antibodies (0.2 μg/ml) or else of the supernatant of the cell clones (in a dilution of 1:15) are incubated a) with 950 μl of a standard solution which contains an increasing content of metolachlor or metolachlor analogue, b) with metolachlor-containing water samples or c) metolachlor-containing soil extracts. (PBS-Tween is used for all dilutions).
# After an incubation time of 1 hour at room temperature (22° C.), 200 μl of the antigen/antibody mixture are added to each well of the microtitre plate, and the entire mixture is incubated for a further hour. The wells are then washed 5× with PBS-Tween (0.1%) and charged with 100 μl/well of goat anti-mouse IgG antibody which is conjugated to alkaline phosphatase (dilution 1:1500) and incubated for a period of 1.5 hours.
# After renewed washing, 150 μl/well of the substrate p-nitrophenyl phosphate which is dissolved in 1 mg/ml diethanolamine buffer (1 mM, pH 9.8, supplemented with 0.5 mM MgCl2 ×6H2 O) are added to the wells.
# After an incubation time of 2 hours at a temperature of 22° C. it is possible to observe a colour change which is proportional to the amount of antibody which has reacted with the antigen bound to the solid phase. The intensity of the colour reaction which has occurred is determined at a wavelength of 405 nm. The dilutions of the individual samples are chosen so that absorptions in a range between 0.3 and 0.5 are obtained without addition of an inhibitor (Bo). Values of R≤0.005 are found for the controls (without antibody and with undetectable amounts of antigen). All the samples are determined in triplicate.
# (§1) For the determination of the amount of metolachlor contained in a sample, initially a calibration plot is constructed (FIG. 1), where B/Bo×100is plotted against the concentration of inhibitor. (Bo represents the absorbance measured without addition of a metolachlor inhibitor to the antibody, and B means the absorbance measured with various concentrations of metolachlor inhibitor). […] The I50 value is calculated using an ENZFITTER (Leatherbarrow, Elsevier-Biosoft) plot calculation program specifically adapted to the present circumstances and based on a logistic plot embracing 4 parameters (Raab GM, 1983). The quantitative determination of metolachlor in samples of soil or water within the scope of the ELISA is also carried out using the ENZFITTER program, with the fitting of the plot being based on standards included on each microtitre plate. […]
# [2] = system: MAb 4082-25-4; test: Direct competitive ELISA (assay B); type: binding, BALB/c mouse
# Experimental: 8.2: Direct ELISA (assay B)
# Microtitre plates [Dynatech M 129A] are coated with monoclonal antibodies [for example MAb 4082-25-4; 75 ng/100 μl of 50 mM sodium carbonate buffer, pH 9.6] and incubated at a temperature of 4° C. overnight. The plates are then washed 5 times with 0.1% (v/v) PBS-Tween and subsequently incubated with PBS supplemented with 1% (w/v) BSA for 2 hours in order to block the binding sites which are still free. After renewed washing, 150 μl of a standard solution are added to each of the wells of the microtitre plates which contain increasing amounts of metolachlor in 0.1% (v/v) PBS-Tween. This is followed by incubation at a temperature of 22° C. for 1 hour. […] After incubation at 22° C. in the dark for 2 hours, the absorption of 405 nm is determined.
# as §1, with “1983).” for “1983). The quantitative determination of metolachlor in samples of soil or water within the scope of the ELISA is also carried out using the ENZFITTER program, with the fitting of the plot being based on standards included on each microtitre plate.”
I50 (inhibitor concentration for 50% inhibition in the competitive ELISA) [1],Cross-reactivity (metolachlor concentration for 50% inhibition / concentration of metolachlor analogue for 50% inhibition × 100) [1],Compound,I50 [2]
43 ng/mL,1.4%,CCc1cccc(C)c1N(C(=O)CO)C(C)COC (stereo not drawn) [A],–
> 1000 ng/mL,< 0.1%,CCc1cccc(C)c1NC(C)CO (stereo not drawn) [E],–
> 1000 ng/mL,< 0.1%,CCc1cccc(C)c1NC(=O)CO [D],–
> 1000 ng/mL,< 0.1%,COCC(=O)N(c1c(C)cccc1C)C(C)C(=O)O (stereo not drawn) [G],–
> 1000 ng/mL,< 0.1%,CCc1cccc(C)c1N(C(=O)CO)C(C)CO (stereo not drawn) [F],–
> 1000 ng/mL,< 0.1%,Cc1cccc(C)c1N(C(=O)CO)C(C)C(=O)O (stereo not drawn) [H],–
> 1000 ng/mL,< 0.1%,CCc1cccc(C)c1NC(C)COC (stereo not drawn) [B],–
> 1000 ng/mL,< 0.1%,COCC(=O)N(c1c(C)cccc1CO)C(C)C(=O)OC (stereo not drawn) [M],–
> 1000 ng/mL,< 0.1%,Cc1cccc(C)c1NC(C)C(=O)O (stereo not drawn) [K],–

# Second part, the compound before the results:
Compound,I50 (inhibitor concentration for 50% inhibition in the competitive ELISA) [1],Cross-reactivity (metolachlor concentration for 50% inhibition / concentration of metolachlor analogue for 50% inhibition × 100) [1],I50 [2]
COCC(=O)N(c1c(C)cccc1C)C(C)C(=O)OC (stereo not drawn) [L],> 1000 ng/mL,–,–
"CCc1cccc(C)c1N(C(=O)CCl)C(C)COC (stereo not drawn) [Metolachlor, 2-chloro-6'-ethyl-N-(2-methoxy-1-methyl-ethyl)acet-O-toluidide]",0.6 ng/mL,100%,1.0 ng/mL
CCc1cccc(C)c1NC(=O)CCl [C],> 1000 ng/mL,< 0.1%,–
COC(=O)C(C)N(C(=O)c1ccco1)c1c(C)cccc1C (stereo not drawn) [N],> 1000 ng/mL,–,–
COC(=O)C(C)N(C(=O)c1ccco1)c1c(C)cccc1C (stereo not drawn) [furalaxyl],–,< 0.1%,–
COCC(=O)Nc1c(C)cccc1C [J],> 1000 ng/mL,< 0.1%,–
COCC(=O)N(c1c(C)cccc1C)C(C)C(=O)OC (stereo not drawn) [matalaxyl],–,< 0.1%,–
COC(=O)C(C)Nc1c(C)cccc1C (stereo not drawn) [Compound I],> 1000 ng/mL,< 0.1%,–
CCc1cccc(CC)c1N(COC)C(=O)CCl [Alachlor],> 1000 ng/mL,< 0.1%,–
